Patent publication US20220378721A1, “PROTEIN KINASE INHIBITORS AND USE THEREOF FOR TREATMENT OF NEURODEGENERATIVE DISEASES” (Xavier University of Louisiana, priority 2019, published 2022)
Read-outs that look alike come from different tables or passages of the source.

Columns and labels:
CK1ε = CK1ε (Homo sapiens, UniProt P49674); assay: In-vitro kinase inhibition assay, Z'-LYTE FRET based (ThermoFisher SelectScreen); format: biochemical; settings: for % Inhibition CK1ε: 10 μM concentration, high-throughput screening; for IC50: 10-point titration, 3-fold dilution from 25 μM (Table 4)
CK1ε, sequence (P49674 whole entry): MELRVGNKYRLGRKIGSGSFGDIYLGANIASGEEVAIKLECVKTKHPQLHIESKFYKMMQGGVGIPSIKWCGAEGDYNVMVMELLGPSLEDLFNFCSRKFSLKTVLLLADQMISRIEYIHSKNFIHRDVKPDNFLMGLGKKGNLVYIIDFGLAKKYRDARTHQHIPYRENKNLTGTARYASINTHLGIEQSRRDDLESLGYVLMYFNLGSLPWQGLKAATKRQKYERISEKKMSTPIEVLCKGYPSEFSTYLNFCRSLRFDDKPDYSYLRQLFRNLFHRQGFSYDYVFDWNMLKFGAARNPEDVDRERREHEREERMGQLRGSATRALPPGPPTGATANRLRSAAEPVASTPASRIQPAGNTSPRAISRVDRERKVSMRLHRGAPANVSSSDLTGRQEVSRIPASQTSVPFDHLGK
Protocol: (§1) The synthesized molecules from FIG. 5 were then analyzed for the inhibition of CK1δ and CK1ε, using in-vitro kinase inhibition assay. The in-vitro kinase inhibition assays were conducted at the ThermoPisher Select Screen Biochemical Kinase Profiling Service. It is a Z′-LYTE biochemical FRET based fluorescence assay with a coupled enzyme format that has differential sensitivity to phosphorylated and non-phosphorylated peptides upon proteolytic cleavage. An initial high-throughput in-vitro screening assay at a concentration of 10 μM for all of the compounds in FIG. 5.
(§2) Table 4 sets forth the IC50 values of inhibition of CK1δ and CK1ε by some of the compounds from FIG. 5.

CK1δ = CK1δ (Homo sapiens, UniProt P48730); assay: Casein kinase 1δ inhibition assay, Z'-LYTE FRET based (ThermoFisher SelectScreen); format: biochemical; settings: for % Inhibition CK1δ: 10 μM concentration, high-throughput screening
CK1δ, sequence (P48730 whole entry): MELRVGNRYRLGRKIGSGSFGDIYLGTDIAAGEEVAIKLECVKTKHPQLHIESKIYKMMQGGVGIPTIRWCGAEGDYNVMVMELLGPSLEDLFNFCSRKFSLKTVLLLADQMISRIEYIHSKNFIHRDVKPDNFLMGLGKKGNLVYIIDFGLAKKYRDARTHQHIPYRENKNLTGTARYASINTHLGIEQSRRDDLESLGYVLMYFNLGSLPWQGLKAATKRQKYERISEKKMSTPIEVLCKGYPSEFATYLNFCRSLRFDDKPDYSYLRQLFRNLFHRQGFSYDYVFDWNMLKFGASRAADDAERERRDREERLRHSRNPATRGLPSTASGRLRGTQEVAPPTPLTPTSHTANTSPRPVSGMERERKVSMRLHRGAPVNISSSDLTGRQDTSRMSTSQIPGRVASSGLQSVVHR
Protocol: Casein kinase 1δ Inhibition Assay: An initial high-throughput assay of the 28 commercially purchased compounds and 22 synthesized compounds were conducted at a 10 μM concentration at the ThermoFisher Select Screen facility. […] FIG. 1 sets forth their chemical structures.
These compounds were then subjected to dose response curve determination studies with the same FRET based assays at ThermoFisher Scientific. The IC50 values, defined as the concentration of the compound required to […] by 50%, of the some of the compounds from the screening were measured (Table 2).
as §1, §2

[1] = test system: tau phosphorylation at Ser202 in HeLa cells; assay: Inhibition of tau phosphorylation at serine 202 in HeLa cells expressing full-length Tau; format: cell-based; settings: HeLa cells transfected with full length tau, 10 μM compound; for inhibition of tau phosphorylation of Ser202: pTau/total Tau
Protocol: FIG. 3A and FIG. 3B show inhibition of Tau phosphorylation by CK1δ inhibitors in HeLa cells. HeLa cervical cancer cells ectopically expressing full-length Tau protein were treated with 10 μM of the indicated compounds. Samples were prepared in triplicate. […] Actin was used as a loading control only and was not used in any later calculations. […] The Y axis reflects the average change in pTau levels divided by total Tau levels for the triplicate experiments for each compound. For normalization purposes, the vehicle control was set to 1.0 and all other values were adjusted accordingly.
For a CK1δ inhibitor to be considered a potential therapeutic for AD, the compound should be able to inhibit the phosphorylation of tau at the specific residues that are known to be phosphorylated by CK1δ. It has been shown that tau phosphorylation at Ser202/Ser205 and Ser396/Ser404 by CK1δ is not dependent on the priming by other protein kinases. Additionally, these phosphorylation sites are among those sites (Ser199, Ser 202, Ser231, Thr205, Ser396 and Ser404) that regulate the microtubule stabilizing function. Based on these evidences, Ser202 was chosen as the representative tan phosphorylation site of this study to understand the efficacy of our CK1δ inhibitors in inhibiting tau phosphorylation.
Inhibition of Tau Phosphorylation. To confirm biological relevance, the compounds identified by the FRET screens as potential CK1δ inhibitors were tested in an in vitro assay for their ability to inhibit the phosphorylation of tau at serine 202, a known target of CK1δ. LH 846, a known inhibitor of CK1δ was used as the positive control. […] In in-vitro tau phosphorylation assay in HeLa cells that were transfected with full length tau, the CK1δ inhibitors indeed lowered the tau phosphorylation levels at Ser202 by 20%-56%. Compounds 8 and 9 inhibited tau phosphorylation of Ser202 by 56% and 55%, respectively when added to HeLa cells that were transfected with and therefore overexpressed tan protein (FIG. 3).

PIM1 = PIM1 (Homo sapiens, UniProt P11309); assay: 100 kinase panel assay; format: biochemical
PIM1, sequence (P11309 whole entry): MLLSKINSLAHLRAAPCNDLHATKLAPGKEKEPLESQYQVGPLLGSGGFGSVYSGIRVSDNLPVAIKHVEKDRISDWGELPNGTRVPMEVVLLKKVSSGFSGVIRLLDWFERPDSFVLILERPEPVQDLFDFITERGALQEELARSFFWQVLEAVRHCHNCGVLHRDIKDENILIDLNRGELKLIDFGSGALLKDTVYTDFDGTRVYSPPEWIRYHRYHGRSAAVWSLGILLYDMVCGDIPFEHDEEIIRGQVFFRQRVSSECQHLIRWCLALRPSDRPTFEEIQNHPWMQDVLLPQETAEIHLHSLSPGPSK
Text: (§3) Compound 2 (from FIG. 1) was screened against a panel of 100 kinases to understand the specificity.

CSNK1D (CK1δ) = CSNK1D (CK1δ) (Homo sapiens, UniProt P48730); assay: 100 kinase panel assay; format: biochemical
CSNK1D (CK1δ), sequence (P48730 whole entry): as the sequence (P48730 whole entry) above
Text: as §3

PIM3 = PIM3 (Homo sapiens, UniProt Q86V86); assay: 100 kinase panel assay; format: biochemical
Text: as §3

[2] = 10-point titration, 3-fold dilution from 25 μM (Table 4), read-out: IC50 values of inhibition of CK1δ
[3] = dose response, FRET based assay (Table 2), read-out: CK1δ (IC50 μM)
[4] = 10-point titration, 3-fold dilution from 25 μM (Table 4)

| SMILES | % Inhibition CK1ε (CK1ε) | % Inhibition CK1δ (CK1δ) | IC50 (CK1δ; [3]) | other results |
| --- | --- | --- | --- | --- |
| O=C1C(c2ccccc2)=C(c2ccccc2)C(=O)c2c(O)ccc(O)c21 [Compound 21] | 14% | 8% |  |  |
| O=C1C=C(CBr)C(=O)c2c(O)ccc(O)c21 [Compound 12] |  |  | 0.7 µM | inhibition of tau phosphorylation at Ser202 (in words) [1]: comparable inhibition potency; % Inhibition CK1ε (CK1ε; 10 µM): 101%; % Inhibition CK1δ (CK1δ; 10 µM): 94%; IC50 (CK1δ; [2]): 0.72 µM |
| O=C1C(CO)=C(CO)C(=O)c2c(O)ccc(O)c21 [Compound 11] |  |  | 27.2 µM |  |
| O=C1C(Cl)=C(Cl)C(=O)c2c(O)ccc(O)c21 [Compound 20] |  | 21% |  | % Inhibition CK1ε (CK1ε; 10 µM): 84%; IC50 (CK1ε): 7.52 µM; IC50 values of inhibition of CK1δ (CK1δ; [4]): could not be determined; IC50 (CK1δ; [2]): > 25 µM |
| COc1cc2cc3c(c(O)c2c(O)c1C=CC(C)C)C(=O)CC(C)(OC(C)=O)C3 (stereo not drawn) [Compound 4] |  |  | 16.1 µM |  |
| CC(=O)Oc1ccc(O)c2c1C(=O)C=CC2=O [Compound 3] |  |  | 0.2 µM |  |
| O=C1C=CC(=O)c2c(O)c(Cl)cc(O)c21 [Compound 18] |  | 13% |  | % Inhibition CK1ε (CK1ε; 10 µM): 90%; IC50 (CK1ε): 1.34 µM; IC50 values of inhibition of CK1δ (CK1δ; [4]): could not be determined; IC50 (CK1δ; [2]): > 25 µM |
| CC(C)(C)OC1CC(O)CC2C(=O)c3c(O)ccc(O)c3C(=O)C12 (stereo not drawn) [Compound 10] |  |  | 10.1 µM |  |
| CC(O)C1=CC(=O)c2c(O)ccc(O)c2C1=O (stereo not drawn) [Compound 16] |  |  | 2.4 µM | inhibition of tau phosphorylation at Ser202 (in words) [1]: comparable inhibition potency |
| O=C1C2=C(C(=O)c3c(O)ccc(O)c31)C(O)C(O)C(O)C2 (stereo not drawn) [Compound 2] |  |  |  | inhibition of tau phosphorylation at Ser202 (in words) [1]: did not measure up to them; % Inhibition at 10 μM, PIM1 (PIM1): 66%; % Inhibition at 10 μM, CSNK1D (CSNK1D (CK1δ)): 70%; % Inhibition at 10 μM, PIM3 (PIM3): 64% |
| O=C1C=C(Br)C(=O)c2c(O)ccc(O)c21 [Compound 24] |  | 1% |  | % Inhibition CK1ε (CK1ε; 10 µM): 96%; IC50 (CK1ε): 2.1 µM; IC50 values of inhibition of CK1δ (CK1δ; [4]): could not be determined; IC50 (CK1δ; [2]): > 25 µM |
| Cc1ccc(O)c2c1C(=O)C=CC2=O [Compound 13] |  |  | 31.2 µM | % Inhibition CK1ε (CK1ε; 10 µM): 98%; IC50 (CK1ε): 1.19 µM; % Inhibition CK1δ (CK1δ; 10 µM): 85%; IC50 (CK1δ; [2]): 2.41 µM |
| O=C1C(Cl)=C(Cl)C(=O)c2c(O)c(Cl)cc(O)c21 [Compound 19] |  | 42% |  | % Inhibition CK1ε (CK1ε; 10 µM): 88%; selectivity for CK1ε over CK1δ (CK1ε; from % inhibition at 10 μM): 2 fold; IC50 (CK1δ; [2]): 9.58 µM |
| CC(C)C(C)OC1CC(=O)CC2C(=O)c3c(O)ccc(O)c3C(=O)C12 (stereo not drawn) [Compound 9] |  |  | 5.8 µM | inhibition of tau phosphorylation at Ser202 (in words) [1]: comparable inhibition potency; inhibition of tau phosphorylation of Ser202 [1]: 55% |
| O=C1c2ccccc2C(=O)c2c(NCCO)cccc21 [Compound 6] |  |  | 21.2 µM |  |
| CNC(=O)c1ccc2c(c1N)C(=O)c1ccccc1C2=O [Compound 7] |  |  | 19.4 µM |  |
| CC(C)(C)OC1CC(=O)CC2C(=O)c3cccc(O)c3C(=O)C12 (stereo not drawn) [Compound 8] |  |  | 18.9 µM | inhibition of tau phosphorylation at Ser202 (in words) [1]: comparable inhibition potency; inhibition of tau phosphorylation of Ser202 [1]: 56% |

Further lines, with some results ahead:

| % Inhibition CK1ε (CK1ε) | % Inhibition CK1δ (CK1δ) | IC50 (CK1δ; [3]) | SMILES | other results |
| --- | --- | --- | --- | --- |
|  |  | 0.2 µM | COc1cccc2c1C(=O)c1c(O)ccc(O)c1C2=O [Compound 5] | inhibition of tau phosphorylation at Ser202 (in words) [1]: comparable inhibition potency; inhibition of tau phosphorylation of Ser202 [1]: approximately 43% |
| 48% | 11% |  | CC(C)Cc1cc(O)c2c(c1)C(=O)C=CC2=O [Compound 25] |  |
| 39% | 2% |  | CC1=C(C)C(=O)c2c(O)c(Cl)cc(O)c2C1=O [Compound 22] |  |
| 58% | 31% | 6.3 µM | Cc1cc(O)c2c(c1O)C(=O)C=CC2=O [Compound 15] |  |
| 15% | 8% |  | CC(C)Cc1cc(O)c2c(c1)C(=O)C=C(C1=CC(=O)c3cc(CC(C)C)cc(O)c3C1=O)C2=O [Compound 29] |  |
| 64% | 43% |  | CCc1cc(O)c2c(c1)C(=O)C=C(C1=CC(=O)c3cc(CC)cc(O)c3C1=O)C2=O [Compound 26] |  |
|  |  | 3.1 µM | O=Cc1cc(O)c2c(c1O)C(=O)C=CC2=O [Compound 14] |  |
| 13% | 9% |  | CC(C)CCc1cc(O)c2c(c1)C(=O)C=C(C1=CC(=O)c3cc(CCC(C)C)cc(O)c3C1=O)C2=O [Compound 28] |  |
| 13% | 9% |  | CCCCCc1cc(O)c2c(c1)C(=O)C=C(C1=CC(=O)c3cc(CCCCC)cc(O)c3C1=O)C2=O [Compound 27] |  |
| 12% | 6% |  | CCCCCCc1cc(O)c2c(c1)C(=O)C=C(C1=CC(=O)c3cc(CCCCCC)cc(O)c3C1=O)C2=O [Compound 30] |  |
| 60% | 17% |  | O=C1C=C(c2ccccc2)C(=O)c2c(O)ccc(O)c21 [Compound 23] |  |
